Results as given in patent publication US7790731B2 (Banyu Pharmaceutical Co. Ltd., priority 2005, dated 2010).

What was measured:
[1] = Thermal and light stability compared with the amorphous compound; type: physicochemical; settings: as compared with amorphous compound
male SD rats = assay: Intracerebral histamine release promotion test; type: in vivo; settings: 30 mg/kg orally, Pargyline-treated male SD rats, 2 hours after administration
Experimental: A histamine 3 receptor antagonist or inverse-agonist is reported to promote histamine release at the nerve end presynaptic region in a brain. For the purpose of investigating the effect of the medicine of the invention on these, a test compound suspended in an aqueous 0.5% methyl cellulose solution was orally administered to male SD rats (7 to 10-week age, 200 to 300 g) treated with a monoamine oxidase inhibitor (Pargyline). 2 hours after the medicine administration, the rats were killed in euthanasia, and the brain tissue was rapidly taken out. According to a Miyamoto et al's method, the concentration of histamine and its main metabolite, tele-methylhistamine in the brain tissue was measured [see Analytical Biochemistry, Vol. 334, p. 89 (2004)].

light stability [1]: excellent | thermal stability [1]: excellent
Structure (SMILES): Cc1nc2cccc(C(F)(F)F)c2c(=O)n1-c1ccc(OCCCN2CCCC2)cc1 [form I crystal, 2-methyl-3-{4-[3-(1-pyrrolidinyl)propoxy]phenyl}-5-trifluoromethyl-4(3H)-quinazolinone]
brain tele-methylhistamine level (male SD rats): significantly increased
